The record followed here is patent US20220306623A1, “PYRIDYL OR PYRIMIDYL MTOR KINASE INHIBITORS” (GLAXOSMITHKLINE INTELLECTUAL PROPERTY DEVELOPMENT LIMITED, priority 2019, published 2022).

Structures are written as SMILES. Where only a bound is given, the exact number is not on record here.

Assay [1] deals with T1, mTOR (Homo sapiens, UniProt P42345).
T1 construct: capturing of endogenously expressed target proteins from cell extracts by a bead-immobilized capturing ligand; endogenous in cells; host or cells: HuT-78 cells (ECACC 88041901), cell lysate
Description: mTOR kinobeads competition-binding assay. To be noted: HuT-78 cell lysate, bead-immobilized capturing ligand, 2 h at 4° C., mean of multiple experiments; read-out: mean pIC50, mTOR kinobeads assay (converted). The protocol:
The affinity of test compounds for mTOR was determined in the mTOR kinobeads assay. This is a competition-binding assay based on the capturing of endogenously expressed target proteins from cell extracts by a bead-immobilized capturing ligand in the presence of the test compound.
HuT-78 cells (European Collection of Authenticated Cell Cultures, 88041901) were cultured according to vendor's instructions. Frozen cell pellets were homogenized in 3× pellet volumes lysis buffer (50 mM Tris-HCl, 0.4% (v/v) Igepal-CA630, 5% glycerol, 150 mM NaCl, 1.5 mM MgCl2, 25 mM NaF, 1 mM sodium vanadate, 1 mM DTT, pH 7.5, supplemented with EDTA-free protease inhibitor tablet (Roche)). The sample was dispersed using a Dounce homogenizer, kept rotating for 30 min at 4° C., and centrifuged for 10 min at 20000 gat 4° C. The supernatant was centrifuged again for 1 h at 145 000 g. The protein concentration was determined by Bradford assay (BioRad), aliquots were snap frozen in liquid nitrogen and stored at −80° C.
The capturing matrices were generated by derivatizing N-hydroxysuccinimide (NHS) activated Sepharose 4 beads (GE Healthcare) with the functionalized ligands Compound A and Compound C at a ligand density of 5 mM. Remaining NHS-groups were blocked with ethanolamine.
For the mTOR kinobeads assay the matrices were combined in a 1:1 ratio and equilibrated in DP buffer (50 mM Tris-HCl (pH 7.5), 0.4% (v/v) Igepal-CA630, 5% (v/v) glycerol, 150 mM NaCl, 1.5 mM MgCl2, 25 mM NaF, 1 mM Na3VO4, 1 mM dithiothreitol). All steps of the mTOR kinobeads assay were performed at 4° C. or on ice. The cell lysate was diluted with DP buffer to a final concentration of 5 mg/ml and a final detergent concentration of 0.4% (v/v) Igepal-CA630. For the assay 250 μg cell lysate and 2.5 μl capturing matrix per well (final assay volume: 75 μl) were incubated in the presence of test compounds in a 384-well filter plate (MultiScreenHTS HV Filter Plate, 0.45 μm, MZHVNOW50, Merck Millipore). Each plate contained 16 positive (100 μM Compound B) and 16 negative (2% v/v DMSO) control wells. Compounds were tested in a concentration-response applying 1:3 or 1:4 dilution steps for in total 11 data points. DMSO concentration was 2% (v/v). After 2 h incubation on an overhead shaker (Roto-Shake Genie, Scientific Industries Inc.) at 4° C. the non-bound fraction was removed by washing the beads with DP buffer. Proteins retained on the beads were eluted in SDS sample buffer (200 mM Tris (pH 7.4), 250 mM Trizma Base, 4% (w/v) SDS, 20% (v/v) glycerol, 0.01% (w/v) bromophenol blue, 50 mM dithiothreitol) into a collection plate (384 well polypropylene microplate, V-shape, Greiner, 781 280). Eluates were spotted on nitrocellulose membranes (400 nl per spot) using an automated pin-tool liquid transfer (Biomek FX, Beckman). After drying, the membranes were rehydrated in 20% (v/v) ethanol and blocked by incubation with Odyssey blocking buffer (LICOR, 927-40000) for 1 h at room temperature. Blocked membranes were incubated overnight at 25° C. with Odyssey blocking buffer supplemented with a specific anti-mTOR antibody (Cell Signaling, 2972; 1:500) and 0.4% TWEEN-20. Then the membranes were washed in PBST buffer and incubated for 60 minutes at room temperature with the detection antibody (IRDye™ labelled antibody from LI-COR) diluted in Odyssey blocking buffer (LICOR 927-40000) containing 0.2% TWEEN-20. Then the membranes were washed with PBST and finally rinsed twice with PBS buffer to remove residual Tween-20. The membranes were then scanned with the Odyssey® Infrared Imaging System (LI-COR Biosciences). Fluorescence signals were recorded and analyzed according to the instructions of the manufacturer. Concentration response curves were computed with the software Activity Base. All data were normalized to the mean of 16 high (negative control) and 16 low (positive control) control wells on each plate. […]

For assay [2], the system named is type I collagen deposition in primary lung fibroblasts derived from human tissue. Nature of the assay: High throughput type I collagen deposition (scar-in-a-jar) high content screening assay. Format: cell-based. Conditions: Primary lung fibroblast, 72 h, human pulmonary fibroblasts, 384-well, TGF-β 1 ng/ml 72 h, total collagen area, read-out: mean pIC50, high throughput type I collagen deposition (scar-in-a-jar) (converted). The protocol:
Highthroughput, cellular type I collagen deposition was measured by adapting a published method; scar-in-a-jar (Chen et al., 2009) to primary lung fibroblasts derived from human tissue and combining with high content analysis to permit fluorescent quantification of collagen deposited in the extracellular matrix (ECM). The human biological samples were sourced ethically and their research use was in accordance with the terms of the informed consents.
Test compounds were dissolved in 100% DMSO to give 10 mM (stocks) and further diluted to give half log dilutions to generate an 11 point concentration response curve. 1 ul was transferred to 384-well plates (Greiner Group, Kremsmunster, Austria, Catalogue No Greine 781280r).
Human pulmonary fibroblasts were maintained in DMEM media (Gibco, Catalogue No 21969) supplemented with 4 mM L-glutamine (Gibco Catalogue No 25030-024) and 10% heat inactivated FBS (Gibco, Catalogue No 10099-141) at 37° C. in 10% CO2. Cells were harvested and resuspended at 4×10^6 cells/ml in a T175 cell culture flask (BD Falcom, Catalogue No: 353112) containing 50 mL of culture media. After 4 days 37° C. in 10% CO2, cells were harvested and seeded at 4000 cells per well ([…]) into 384-well plates (BD Falcon, Catalogue No 353962Greiner) in assay media (0.4% heat inactivated FBS, 4 mM L-glutamine). Plates were sealed with breathable seals (Sigma, Catalogue No. BEM-1). Assay plates were incubated for 72 h at 37° C. in 10% CO2.
Assay media was supplemented with 112.5 mg/ml Ficoll 70 (Sigma, Catalogue No F2878), 75 mg/ml Ficoll 400 (Sigma, Catalogue No F4375) and 50 µg/ml ascorbic acid (Sigma, Catalogue No A8960). 30 μL assay media were added to 1 l compound ([…] compound concentration in 1% DMSO). Diluted compounds (10 μL) were transferred to plates containing cells and incubated for 3 h at 37° C. in 10% CO2. Transforming growth factor (TGF)-β (R&D systems, Catalogue No 100-B/CF) was reconstituted to give 10 µg/mL (stock) and further diluted in assay media containing Ficoll and ascorbic acid (1 in 3333). TGF-β was added to cell plates (1 ng/ml final) and cells incubated for 72 h at 37° C. in 10% CO2.
Media was aspirated from cells and 30 µL/well 100% ice-cold methanol added and incubated at RT for 5 min to fix cells. Methanol was aspirated and cells washed with PBS (3×). To block and permeabilise, cells were incubated with PBS containing 1% BSA and 0.1% Triton X 100 for 20 min, followed by PBS wash (3×). Cells were incubated with mouse anti human type I collagen monoclonal antibody (Sigma, Catalogue No C2456) diluted 1:1000 in PBS for 24 h at 4° C. Cells were washed with PBS containing 0.1% Tween-20 (3×) and incubated with secondary alexa fluor 488 goat-anti-mouse antibody (Invitrogen, Catalogue No A11001, 1 in 500 in PBS) and Hoechst 33342 (Sigma, Catalogue No H21492), 1 in 1000 in PBS) for 1 h at RT, prior to washing with PBS containing 0.1% Tween (×4).
Type I collagen immunoreactivity was detected using the INCell 2000 Analyzer (GE Healthcare, INcell 2000) set to excitation and emission wavelengths for DAPI and FITC with laser focus and exposure adjusted to appropriate levels. Images were imported and analysed using Columbus software (Perkin Elmer) and computational algorithms to quantify “total collagen area” and “cell count”.
Data analysis was performed by determining 0/inhibition values for test compounds relative to the minimum (media only) and maximum responses (TGF-βstimulation) with non-linear regression analysis to determine IC50 values for test compounds.

As to `CC[C@H]1COCC(=O)N1c1cc(CS(C)(=O)=O)nc(-c2ccc3[nH]c(CO)cc3n2)n1` [Example 5, (5S)-5-ethyl-4-{2-[2-(hydroxymethyl)-1H-pyrrolo[3,2-b]pyridin-5-yl]-6-(methanesulfonylmethyl)pyrimidin-4-yl}morpholin-3-one], the IC50 is at most 0.2 nM in assay [1] and 20 to 3160 nM in assay [2]. On to `CC[C@H]1COCC(=O)N1c1cc(CS(=O)(=O)N(C)C)cc(-c2ccc3[nH]c(CNC)cc3n2)n1` [Example 7, (S)-1-(2-(3-ethyl-5-oxomorpholino)-6-(2-((methylamino)methyl)-1H-pyrrolo[3,2-b]pyridin-5-yl)pyridin-4-yl)-N,N-dimethylmethanesulfonamide], for which, in assay [2], the IC50 was 20 to 3160 nM.

As to `CC[C@H]1COCCN1c1cc(CS(=O)(=O)NC)nc(-c2ccc3[nH]c(C)cc3n2)n1` [Example 11, 1-{6-[(3S)-3-ethylmorpholin-4-yl]-2-{2-methyl-1H-pyrrolo[3,2-b]pyridin-5-yl}pyrimidin-4-yl}-N-methylmethanesulfonamide], the IC50 in assay [1] was at most 0.2 nM; in assay [2] it was 20 nM. Turning to `CC[C@H]1COCCN1c1cc(CS(C)(=O)=O)nc(-c2ccc3[nH]c(C)cc3n2)n1` [Example 12, (3S)-3-ethyl-4-[6-(methanesulfonylmethyl)-2-{2-methyl-1H-pyrrolo[3,2-b]pyridin-5-yl}pyrimidin-4-yl]morpholine], the results for the IC50 in assay [1] and in assay [2] were at most 0.316 nM and 20 to 3160 nM, respectively. For `CC[C@H]1COCCN1c1cc(C2(S(C)(=O)=O)CCNCC2)nc(-c2ccc3[nH]c(C)cc3n2)n1` [Example 17, (3S)-3-ethyl-4-[6-(4-methanesulfonylpiperidin-4-yl)-2-{2-methyl-1H-pyrrolo[3,2-b]pyridin-5-yl}pyrimidin-4-yl]morpholine], the IC50 in assay [2] is 20 to 3160 nM. The same measure, in the same setting: in the case of `CC[C@H]1COCCN1c1cc(C2(S(C)(=O)=O)CCN(C)CC2)cc(-c2ccc3[nH]c(C)cc3n2)n1` [Example 19, (S)-3-ethyl-4-(6-(2-methyl-1H-pyrrolo[3,2-b]pyridin-5-yl)-4-(1-methyl-4-(methylsulfonyl)piperidin-4-yl)pyridin-2-yl)morpholine] it was 20 to 3160 nM. For the molecule `CC[C@H]1COCCN1c1cc(C2(S(C)(=O)=O)CCN(C)CC2)cc(-c2ccc3[nH]c(CO)cc3n2)n1` [Example 20, (S)-(5-(6-(3-ethylmorpholino)-4-(1-methyl-4-(methylsulfonyl)piperidin-4-yl)pyridin-2-yl)-1H-pyrrolo[3,2-b]pyridin-2-yl)methanol], in assay [2], the IC50 was 20 to 3160 nM. The same measure, in the same setting: the figure for `CC[C@H]1COCC(=O)N1c1cc(CS(C)(=O)=O)cc(-c2ccc3[nH]c(CNC)cc3n2)n1` [Example 28, (S)-5-ethyl-4-(6-(2-((methylamino)methyl)-1H-pyrrolo[3,2-b]pyridin-5-yl)-4-((methylsulfonyl)methyl)pyridin-2-yl)morpholin-3-one] is 20 to 3160 nM. For `CC[C@H]1COCC(=O)N1c1cc(CS(=O)(=O)N(C)C)cc(-c2ccc3[nH]c(CO)cc3n2)n1` [Example 29, (S)-1-(2-(3-ethyl-5-oxomorpholino)-6-(2-(hydroxymethyl)-1H-pyrrolo[3,2-b]pyridin-5-yl)pyridin-4-yl)-N,Ndimethylmethanesulfonamide], the IC50 in assay [1] is at most 1.26 nM; in assay [2] it was 20 to 3160 nM.
